Test systems include NCI-H460 lung; A549 NSCLC; SNB-78 CNS; RXF 393 renal; CCRF-CEM leukemia; 786-0 renal; DLD-1 colon; HCC-2998 colon; OVCAR-4 ovarian; KM12 colon.
Holding throughout (experiment): NCI anticancer screen, dose series, 48 h

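Each compound was tested at five concentrations against cells in 96-well plates for 48 hours. TGI is the concentration that stops growth completely.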 Some results are limits rather than exact numbers.

With `CCc1cccc(CC)c1NC1=CC(=O)C(=O)c2ccccc21`, the TGI was 48.8 µM in the assay with NCI-H460 lung; 37.8 µM with A549 NSCLC; 80.6 µM in the assay on SNB-78 CNS; 45.2 µM in the assay with RXF 393 renal; more than 100 µM in the assay with CCRF-CEM leukemia; 44.9 µM with 786-0 renal. Also, the TGI in the assay on DLD-1 colon stood at 49.7 µM; in the assay with HCC-2998 colon, 28.8 µM; with OVCAR-4 ovarian, 27.8 µM; with KM12 colon, 33.2 µM.
For the compound `CC(=O)NNc1nc(C)c(C(=O)NNC(=O)C(=O)Nc2ccc(C)cc2[N+](=O)[O-])s1`, the TGI with NCI-H460 lung, with A549 NSCLC, in the assay on SNB-78 CNS, with RXF 393 renal, in the assay with CCRF-CEM leukemia and with 786-0 renal was more than 100 µM throughout. Besides, the TGI with DLD-1 colon, with HCC-2998 colon, in the assay with OVCAR-4 ovarian and in the assay on KM12 colon was more than 100 µM throughout.
As to `O=C(CC1(O)C(=O)Nc2ccc(Br)cc21)c1cccc([N+](=O)[O-])c1` (stereo unspecified), the TGI is more than 100 µM with NCI-H460 lung; more than 100 µM in the assay on A549 NSCLC; more than 100 µM with SNB-78 CNS; 83.8 µM in the assay on RXF 393 renal; 99.6 µM with CCRF-CEM leukemia; more than 100 µM in the assay on 786-0 renal. Also, the TGI in the assay on DLD-1 colon is more than 100 µM; in the assay with HCC-2998 colon, more than 100 µM; in the assay with OVCAR-4 ovarian, 67.1 µM; in the assay with KM12 colon it was more than 100 µM.
Turning to `COc1ccc(Cc2c3cc(OC)c(OC)cc3cc[n+]2C)cc1`, the TGI in the assay with A549 NSCLC was more than 46.5 µM; in the assay with SNB-78 CNS it was more than 100 µM; in the assay on RXF 393 renal, more than 42 µM; in the assay on CCRF-CEM leukemia it was more than 100 µM; in the assay with 786-0 renal, more than 29.7 µM; in the assay with DLD-1 colon, more than 26.9 µM. Also, the TGI in the assay with HCC-2998 colon is more than 32.8 µM; in the assay on OVCAR-4 ovarian, more than 40.5 µM; in the assay with KM12 colon, more than 23 µM.
As to `C#CC[C@]12CC(=O)CC[C@H]1CC1(C2)OCCO1`, the TGI with NCI-H460 lung, in the assay on A549 NSCLC, with SNB-78 CNS, with RXF 393 renal, in the assay with CCRF-CEM leukemia and in the assay on 786-0 renal was more than 100 µM in each case. The TGI in the assay on DLD-1 colon, with HCC-2998 colon, in the assay on OVCAR-4 ovarian and with KM12 colon was more than 100 µM in each case.
On to `C[C@H](O)CCC(=O)c1ccoc1`, for which the TGI with NCI-H460 lung, with A549 NSCLC, in the assay with SNB-78 CNS, in the assay on RXF 393 renal, with CCRF-CEM leukemia and in the assay on 786-0 renal was more than 100 µM each time. Besides, the TGI in the assay on DLD-1 colon, in the assay on HCC-2998 colon, in the assay with OVCAR-4 ovarian and with KM12 colon was more than 100 µM in each case.
`C/C(=N\NC(N)=S)c1ccc(Oc2ccccc2)cc1`: the TGI with NCI-H460 lung came out at 42.6 µM; with A549 NSCLC, 74.4 µM; with SNB-78 CNS, 47.7 µM; in the assay on RXF 393 renal, 26.2 µM; in the assay on CCRF-CEM leukemia it was 37.2 µM; with 786-0 renal it was 14.5 µM. Moreover, the TGI was determined as 16.9 µM with DLD-1 colon, 28.7 µM with HCC-2998 colon and 16.8 µM in the assay with OVCAR-4 ovarian.
`Cc1c(Cl)ccc2[s+]snc12`: the TGI in the assay on NCI-H460 lung was more than 100 µM; in the assay on A549 NSCLC, more than 100 µM; in the assay on SNB-78 CNS, more than 100 µM; with RXF 393 renal, 37.2 µM; in the assay with CCRF-CEM leukemia, 82.6 µM; in the assay with 786-0 renal it was 36.2 µM. The TGI was 62 µM in the assay with DLD-1 colon, more than 100 µM with HCC-2998 colon, more than 100 µM with OVCAR-4 ovarian and more than 100 µM in the assay with KM12 colon.
In the case of `CC[C@H]1CNC(=O)CC1CC(=O)OC` (stereo partly specified), the TGI in the assay on NCI-H460 lung, with A549 NSCLC, with SNB-78 CNS, with RXF 393 renal, with 786-0 renal and in the assay with DLD-1 colon was more than 100 µM throughout. The TGI in the assay on HCC-2998 colon, in the assay on OVCAR-4 ovarian and in the assay on KM12 colon was more than 100 µM in each case.
Consider `CC1(C)OC2OC(/C=C/[N+](=O)[O-])C3OC(C)(C)OC3C2O1` (stereo unspecified), for which the TGI in the assay with NCI-H460 lung is 32.4 µM; in the assay with A549 NSCLC, 42.6 µM; with SNB-78 CNS, 44 µM; in the assay with RXF 393 renal, 5.99 µM; with CCRF-CEM leukemia it was more than 75.7 µM; with 786-0 renal, 27.7 µM. Also, the TGI with DLD-1 colon came to 4.05 µM; with HCC-2998 colon, 31.1 µM; with OVCAR-4 ovarian, 30.9 µM; in the assay on KM12 colon it was 31.5 µM.
As for `O=C1N(c2ccccc2)C2(O)C(=O)c3ccccc3C2(O)N1c1ccccc1` (stereo unspecified), the TGI with NCI-H460 lung, with A549 NSCLC, in the assay with SNB-78 CNS, in the assay on RXF 393 renal, with CCRF-CEM leukemia and in the assay with 786-0 renal was more than 100 µM each time. In addition, the TGI with DLD-1 colon, with HCC-2998 colon, with OVCAR-4 ovarian and in the assay on KM12 colon was more than 100 µM throughout.
`CS(=O)c1cc(=O)c2ccccc2s1` (stereo unspecified): the TGI came out at 35 µM in the assay on NCI-H460 lung; 38.3 µM in the assay with A549 NSCLC; 27.6 µM in the assay on SNB-78 CNS; 5.46 µM in the assay with RXF 393 renal; 4.45 µM in the assay with CCRF-CEM leukemia; 7.41 µM with 786-0 renal. Also, the TGI was determined as 5.6 µM with DLD-1 colon, 16.6 µM in the assay with HCC-2998 colon, 5.95 µM with OVCAR-4 ovarian and 28.4 µM in the assay on KM12 colon.
With `N#CC1(C2CC(=O)N(c3ccccc3)C2=O)CCCCC1=O` (stereo unspecified), the TGI in the assay with NCI-H460 lung, in the assay with A549 NSCLC, with SNB-78 CNS, in the assay with RXF 393 renal, in the assay with CCRF-CEM leukemia and in the assay on 786-0 renal was more than 100 µM in each case. In addition, the TGI in the assay on DLD-1 colon, with HCC-2998 colon, in the assay with OVCAR-4 ovarian and with KM12 colon was more than 100 µM each time.
Turning to `CCOc1ccc(/C=C/C(=O)c2sc(NNC(C)=O)nc2C)cc1`, the TGI in the assay with NCI-H460 lung, in the assay on A549 NSCLC, in the assay on SNB-78 CNS, in the assay with RXF 393 renal, in the assay with CCRF-CEM leukemia and with 786-0 renal was more than 100 µM each time. Moreover, the TGI with DLD-1 colon, with HCC-2998 colon and with KM12 colon was more than 100 µM in each case.
